In patent US4232007A, “Oral antilipemic agents” (Taiho Pharmaceutical Company Ltd., priority 1975, dated 1980):

Tests used:
Rat = assay: Acute toxicity test; assay type: in vivo; details: for LD50: 72 hours after administration
plasma = assay: Recalcification test; assay type: biochemical, rat; details: 58 sec. at 0 μg
Procedure: A 0.5 ml quantity of 0.1 M sodium citrate is added to 4.5 ml of blood of rat to obtain plasma. […] Thereafter 0.1 ml of 0.025 M CaCl2 saline solution is added to coagulate the blood sample.

lipids in blood [1] = assay: Reduction of lipids in blood of rats given surfactant Triton WR-1339, oral administration; assay type: in vivo, rat; details: rats given Triton WR-1339 200 mg/kg i.v., compound 50 mg/kg oral; for Free cholesterol: normal rat 25.7 ± 3.7, rat given surfactant 114.2 ± 28.8; for β-Lipoprotein: normal rat 44.3 ± 1.3, rat given surfactant 141.7 ± 28.8; for Triglyceride: normal rat 44.7 ± 3.5, rat given surfactant 780.1 ± 354.5; for Total cholesterol: normal rat 89.9 ± 10.4, rat given surfactant 235.3 ± 41.7; for Total lipid: normal rat 220 ± 12, rat given surfactant 1033 ± 330
Procedure: A 100 g quantity of the methyl ester of polyglutamic acid (average molecular weight: 100,000) is dissolved in dichloroethane to a concentration of 10 wt.%. To the solution is added a mixture of 70 ml of 2 N sodium hydroxide solution, 140 ml of methanol and 140 ml of isopropanol,and the resulting mixture is stirred at room temperature for about 8 hours to effect demethylation. The product is then passed through a molecular sieve (Sephadex G-200) for the classification of molecular weight to separate a portion ranging from 80,000 to 100,000 in molecular weight (average molecular weight: 90,000). The separated portion is concentrated under reduced pressure and divided into two portions of equivalent weight. To one of the portions is added methanol and the precipitate formed is separated by filtration and dried to obtain the sodium salt of polyglutamic acid. To the other portion is added concentrated hydrochloric acid until the pH thereof reaches 4, then the solution is cooled with ice, whereby a precipitate is formed. The precipitate is separated by filtration, washed with diluted hydrochloric acid, thereafter with methanol and dried to obtain polyglutamic acid. Each powder (200 mg) of polyglutamic acid and sodium salt thereof thus obtained is mixed with 290 mg of milk sugar, 500 mg of corn starch and 10 mg of hydroxypropyl cellulose and the mixtures obtained are granulated respectively. The granules are suspended in water. Two kinds of the suspensions are orally administered to 7 rats in a dose of 50 mg/kg, respectively, to determine the reduction of lipids in blood.
The separated portion is concentrated under reduced pressure, methanol is added to the concentrate and the resulting precipitate is filtered off and dried to obtain the sodium salt of the copolymer of glutamic acid and aspartic acid. With the powder (200 mg) thus obtained are mixed 290 mg of milk sugar, 500 mg of corn starch and 10 mg of hydroxypropyl cellulose. The mixture is granulated and the granules are suspended in an isotonic sodium chloride solution.

lipids in blood [2] = details: known drugs, background; cited from earlier work
anticoagulant activity = details: cited from earlier work
[3] = amount 100 μg, ditto mark = No coagulation

Row | Substance | toxicity compared with heparin (Rat; Table 2) | LD50 (Rat; intravenous) | LD50 (Rat; oral) | Coagulation time (plasma; amount 0.1 μg) | Coagulation time (plasma; amount 0.3 μg) | Coagulation time (plasma; amount 0.5 μg) | Coagulation time (plasma; amount 1 μg) | Coagulation time (plasma; amount 10 μg) | Coagulation time (plasma; [3]) | Coagulation time (plasma; amount 500 μg, ditto mark = No coagulation) | Coagulation time (plasma; amount 1000 μg, ditto mark = No coagulation) | Coagulation time (plasma; amount 2000 μg, ditto mark = No coagulation) | Free cholesterol (lipids in blood [1]) | β-Lipoprotein (lipids in blood [1]) | Triglyceride (lipids in blood [1]) | Total cholesterol (lipids in blood [1]) | Total lipid (lipids in blood [1]) | reducing lipids in blood (lipids in blood [2]) | anticoagulant activity as a side effect (anticoagulant activity)
1 | polyglutamic acid | much lower toxicity than heparin | 2050 mg/kg | 6000 mg/kg | 55 s | 58 s | 56 s | 62 s | 58 s | 62 s | 100 s | 151 s | 250 s | 38.8 ± 11.7 mg/dl of plasma | 61.9 ± 29.0 mg/dl of plasma | 103.3 ± 67.2 mg/dl of plasma | 118.1 ± 35.3 mg/dl of plasma | 373 ± 132 mg/dl of plasma |  | 
2 | dextran sulfate |  |  |  | 57 s | 62 s | 61 s | 117 s | 172 s | No coagulation |  |  |  |  |  |  |  |  | effective in reducing lipids in blood | very high anticoagulant activity
3 | heparin |  | 730 mg/kg | 1950 mg/kg | 62 s | 145 s | 168 s | 285 s | No coagulation |  |  |  |  |  |  |  |  |  | effective in reducing lipids in blood | very high anticoagulant activity
4 | sodium salt of polyglutamic acid |  |  |  |  |  |  |  |  |  |  |  |  | 40.0 ± 11.4 mg/dl of plasma | 63.4 ± 16.9 mg/dl of plasma | 92.0 ± 42.8 mg/dl of plasma | 121.8 ± 18.9 mg/dl of plasma | 393 ± 66 mg/dl of plasma |  | 
